What follows are compounds tested against T1, POLγA:G848S (Homo sapiens, UniProt P54098, G848S) (assay: DNA polymerization assay, POLγA:G848S mutant). Details: stimulation of polymerase activity, primed M13mp18 ssDNA, 37° C. 2 hours; read-out: G848S AC50.
T1 sequence (P54098 1-1239 G848S): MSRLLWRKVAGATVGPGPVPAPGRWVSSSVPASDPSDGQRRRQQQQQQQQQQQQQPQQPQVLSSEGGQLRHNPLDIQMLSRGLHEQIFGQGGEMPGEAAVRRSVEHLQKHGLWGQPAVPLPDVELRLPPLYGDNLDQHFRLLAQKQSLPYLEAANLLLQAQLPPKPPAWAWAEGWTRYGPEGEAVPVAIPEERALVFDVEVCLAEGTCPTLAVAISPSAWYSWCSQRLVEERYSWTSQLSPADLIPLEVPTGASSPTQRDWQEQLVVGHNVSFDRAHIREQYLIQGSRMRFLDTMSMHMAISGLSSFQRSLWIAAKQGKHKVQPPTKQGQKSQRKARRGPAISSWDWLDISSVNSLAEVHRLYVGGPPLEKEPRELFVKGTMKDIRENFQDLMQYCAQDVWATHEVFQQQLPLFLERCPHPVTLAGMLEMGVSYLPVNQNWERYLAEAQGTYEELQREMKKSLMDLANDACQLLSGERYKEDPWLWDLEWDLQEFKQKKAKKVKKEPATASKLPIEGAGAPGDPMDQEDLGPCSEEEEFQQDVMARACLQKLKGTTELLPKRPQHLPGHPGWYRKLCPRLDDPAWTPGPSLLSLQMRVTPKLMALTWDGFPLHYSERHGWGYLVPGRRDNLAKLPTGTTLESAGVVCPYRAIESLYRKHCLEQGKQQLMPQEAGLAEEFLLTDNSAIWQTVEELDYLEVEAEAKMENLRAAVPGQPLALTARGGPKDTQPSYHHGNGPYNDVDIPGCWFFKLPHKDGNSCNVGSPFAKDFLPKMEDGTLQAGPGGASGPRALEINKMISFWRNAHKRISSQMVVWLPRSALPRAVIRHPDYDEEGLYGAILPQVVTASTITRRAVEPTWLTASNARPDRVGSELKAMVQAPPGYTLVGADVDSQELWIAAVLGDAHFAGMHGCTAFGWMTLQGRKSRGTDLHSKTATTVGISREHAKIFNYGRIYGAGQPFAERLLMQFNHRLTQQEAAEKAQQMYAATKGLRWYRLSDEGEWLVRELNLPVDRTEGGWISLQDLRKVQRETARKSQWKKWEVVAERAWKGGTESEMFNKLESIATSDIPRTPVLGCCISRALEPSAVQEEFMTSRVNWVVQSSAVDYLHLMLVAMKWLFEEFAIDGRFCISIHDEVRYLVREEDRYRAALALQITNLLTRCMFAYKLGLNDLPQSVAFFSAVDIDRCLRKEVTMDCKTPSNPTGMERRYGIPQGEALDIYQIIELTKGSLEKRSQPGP
T1 sequence (Q9UHN1 1-485 partner): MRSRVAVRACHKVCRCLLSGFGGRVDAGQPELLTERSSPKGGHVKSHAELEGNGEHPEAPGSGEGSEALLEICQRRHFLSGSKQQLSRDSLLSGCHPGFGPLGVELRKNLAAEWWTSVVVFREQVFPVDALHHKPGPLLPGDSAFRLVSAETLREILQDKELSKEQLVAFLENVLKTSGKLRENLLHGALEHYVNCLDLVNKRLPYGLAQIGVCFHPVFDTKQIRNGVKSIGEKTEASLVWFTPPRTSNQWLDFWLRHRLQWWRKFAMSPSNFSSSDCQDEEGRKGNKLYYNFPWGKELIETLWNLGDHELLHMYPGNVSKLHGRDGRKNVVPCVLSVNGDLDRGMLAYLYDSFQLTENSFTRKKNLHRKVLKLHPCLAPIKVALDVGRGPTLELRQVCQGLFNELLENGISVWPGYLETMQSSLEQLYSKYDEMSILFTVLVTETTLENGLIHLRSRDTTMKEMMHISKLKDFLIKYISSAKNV
Type: biochemical

How did the AC50 turn out when `Cc1cc(S(=O)(=O)Nc2ccc3ccn(C)c3c2)c(C)cc1Cl` [Example 72, 4-chloro-2,5-dimethyl-N-(1-methyl-1H-indol-6-yl)benzenesulfonamide] was run?
Its AC50 is 98 µM.

Which AC50 does the source give for `Cc1nc2ccc(NS(=O)(=O)c3cc(C)c(Cl)cc3C)cc2s1` [Example 73, 4-chloro-2,5-dimethyl-N-(2-methylbenzo[d]thiazol-6-yl)benzenesulfonamide] here?
The AC50 was 14 µM.

`Cc1cc(S(=O)(=O)Nc2ccc3nc(-c4ccccc4)sc3c2)c(C)cc1Cl` [Example 74, 4-chloro-2,5-dimethyl-N-(2-phenylbenzo[d]thiazol-6-yl)benzenesulfonamide] was tested. Which AC50 did it give?
Its AC50 is > 100 µM.

Which AC50 does the source give for `Cc1nc2cc(NS(=O)(=O)c3cc(C)c(Cl)cc3C)ccc2o1` [Example 75, 4-chloro-2,5-dimethyl-N-(2-methylbenzo[d]oxazol-5-yl)benzenesulfonamide] here?
The AC50 was > 100 µM.

For `Cc1cc(S(=O)(=O)Nc2cccc(-c3ncc(C4CC4)s3)c2)c(C)cc1Cl` [Example 76, 4-chloro-N-(3-(5-cyclopropylthiazol-2-yl)phenyl)-2,5-dimethylbenzenesulfonamide], which AC50 is on record?
The AC50 was 3 µM.

For `Cc1cc(S(=O)(=O)Nc2ccccc2-c2ncco2)c(C)cc1Cl` [Example 77, 4-chloro-2,5-dimethyl-N-(2-(oxazol-2-yl)phenyl)benzenesulfonamide], which AC50 is on record?
Its AC50 is > 100 µM.

Which AC50 does the source give for `Cc1cnc(-c2cccc(S(=O)(=O)Nc3cc(C)c(Cl)cc3C)c2)s1` [Example 78, N-(4-chloro-2,5-dimethylphenyl)-3-(5-methylthiazol-2-yl)benzenesulfonamide] here?
Its AC50 is > 10 µM.

How did the AC50 turn out when `Cc1cnc(-c2ccccc2NS(=O)(=O)c2cc(C)c(Cl)cc2C)s1` [Example 79, 4-chloro-2,5-dimethyl-N-(2-(5-methylthiazol-2-yl)phenyl)benzenesulfonamide] was run?
The AC50 was > 10 µM.

For `Cc1csc(-c2ccccc2NS(=O)(=O)c2cc(C)c(Cl)cc2C)n1` [Example 80, 4-chloro-2,5-dimethyl-N-(2-(4-methylthiazol-2-yl)phenyl)benzenesulfonamide], which AC50 is on record?
Its AC50 is > 10 µM.

How did the AC50 turn out when `Cc1cc(S(=O)(=O)Nc2csc(-c3ccccc3)n2)c(C)cc1Cl` [Example 81, 4-chloro-2,5-dimethyl-N-(2-phenylthiazol-4-yl)benzenesulfonamide] was run?
The AC50 was 2 µM.

Which AC50 does the source give for `Cc1cc(S(=O)(=O)NC2CCOc3c(Cl)cccc32)c(C)cc1Cl` (stereo not drawn) [Example 82, 4-chloro-N-(8-chlorochroman-4-yl)-2,5-dimethylbenzenesulfonamide] here?
The AC50 was > 10 µM.

How did the AC50 turn out when `Cc1cnc(-c2ccc(NS(=O)(=O)c3cc(C)c(Cl)cc3C)cc2)s1` [Example 83, 4-chloro-2,5-dimethyl-N-(4-(5-methylthiazol-2-yl)phenyl)benzenesulfonamide] was run?
Its AC50 is 3 µM.

For `Cc1cc(S(=O)(=O)Nc2cc(-c3ccccc3)no2)c(C)cc1Cl` [Example 84, 4-chloro-2,5-dimethyl-N-(3-phenylisoxazol-5-yl)benzenesulfonamide], which AC50 is on record?
Its AC50 is > 10 µM.

`Cc1nc2cccc(NS(=O)(=O)c3cc(C)c(Cl)cc3C)c2s1` [Example 85, 4-chloro-2,5-dimethyl-N-(2-methylbenzo[d]thiazol-7-yl)benzenesulfonamide] was tested. Which AC50 did it give?
The AC50 was > 100 µM.

For `Cc1cc(S(=O)(=O)Nc2ccc(-c3ncc(CN(C)C)s3)cc2)c(C)cc1Cl` [Example 86, 4-chloro-N-(4-(5-((dimethylamino)methyl)thiazol-2-yl)phenyl)-2,5-dimethylbenzenesulfonamide], which AC50 is on record?
The AC50 was > 100 µM.

`Cc1cc(S(=O)(=O)Nc2cccc(-c3ncc(CN(C)C)s3)c2)c(C)cc1Cl` [Example 87, 4-chloro-N-(3-(5-((dimethylamino)methyl)thiazol-2-yl)phenyl)-2,5-dimethylbenzenesulfonamide] was tested. Which AC50 did it give?
Its AC50 is 14 µM.

For `COC(=O)c1cnc(-c2cccc(NS(=O)(=O)c3cc(C)c(Cl)cc3C)c2)s1` [Example 88, methyl 2-(3-((4-chloro-2,5-dimethylphenyl)sulfonamido)phenyl) thiazole-5-carboxylate], which AC50 is on record?
The AC50 was > 100 µM.

`Cc1cc(S(=O)(=O)Nc2cccc(-c3ncc(CO)s3)c2)c(C)cc1Cl` [Example 89, 4-chloro-N-(3-(5-(hydroxymethyl)thiazol-2-yl)phenyl)-2,5-dimethylbenzenesulfonamide] was tested. Which AC50 did it give?
Its AC50 is 3 µM.

How did the AC50 turn out when `Cc1cc(S(=O)(=O)Nc2cccc(-c3ncc(C(=O)O)s3)c2)c(C)cc1Cl` [Example 90, 2-(3-((4-chloro-2,5-dimethylphenyl)sulfonamido)phenyl) thiazole-5-carboxylic acid] was run?
The AC50 was > 100 µM.

With `Cc1cc(S(=O)(=O)Nc2cccc(C(=O)N3CCCN(C(=O)C(C)C)CC3)c2)c(C)cc1Cl` [Example 91, 4-chloro-N-(3-(4-isobutyryl-1,4-diazepane-1-carbonyl)phenyl)-2,5-dimethylbenzenesulfonamide] as the compound, how does the AC50 read?
The AC50 was > 100 µM.

`Cc1cc(S(=O)(=O)Nc2csc(-c3ccnn3C)n2)c(C)cc1Cl` [Example 182, 4-chloro-2,5-dimethyl-N-(2-(1-methyl-1H-pyrazol-5-yl)thiazol-4-yl)benzenesulfonamide] was tested. Which AC50 did it give?
The AC50 was 0.9 µM.

Reference: patent US20260138961A1, “MODULATORS OF MITOCHONDRIAL DNA REPLICATION” (Pretzel Therapeutics, Inc., priority 2022, published 2026)
